In paper PMC4256047, “Structural and Functional Profiling of Environmental Ligands for Estrogen Receptors” (Environmental Health Perspectives, 2014):
Each block holds one molecule with its values, some of them ahead of it. Primed or numbered codes have the meaning given here. Where no end group is shown, it is not given here. fluorescein″ = fluorescein label on the peptide (N-terminal, fluorescein-labeled peptide)

Assays:
wild-type ERβ LBD = wild-type ERβ LBD (Homo sapiens, UniProt Q92731); test: fluorescence anisotropy, SRC-1 NR2 peptide recruitment by ERβ LBD; conditions: class from Kd of SRC-1 peptide for ERβ LBD
human ERα = biological target: T1, human ERα (Homo sapiens, UniProt P03372); test: HGELN-ERα luciferase transactivation assay; conditions: for relative activation of the two ER subtypes: HGELN-ERα versus HGELN-ERβ, full-length receptors; for agonistic potential in words, FL-ERα: HGELN-ERα, full-length receptor
T1 sequence (P03372 1-595): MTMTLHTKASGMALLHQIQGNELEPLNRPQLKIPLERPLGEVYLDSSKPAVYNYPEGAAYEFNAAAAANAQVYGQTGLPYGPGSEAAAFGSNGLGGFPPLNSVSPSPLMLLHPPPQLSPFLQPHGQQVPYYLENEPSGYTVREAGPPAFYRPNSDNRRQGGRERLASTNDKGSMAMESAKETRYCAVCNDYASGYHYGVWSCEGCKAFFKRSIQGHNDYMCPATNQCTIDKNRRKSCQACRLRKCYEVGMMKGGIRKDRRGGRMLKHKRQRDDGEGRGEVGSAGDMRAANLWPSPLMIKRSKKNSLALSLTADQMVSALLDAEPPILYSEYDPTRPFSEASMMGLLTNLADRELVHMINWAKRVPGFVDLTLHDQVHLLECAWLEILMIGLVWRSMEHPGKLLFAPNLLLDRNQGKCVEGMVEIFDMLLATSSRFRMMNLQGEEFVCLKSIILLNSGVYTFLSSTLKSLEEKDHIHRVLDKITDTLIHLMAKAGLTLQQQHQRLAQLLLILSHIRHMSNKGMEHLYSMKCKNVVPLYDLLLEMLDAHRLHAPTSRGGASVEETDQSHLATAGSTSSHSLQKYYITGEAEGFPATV

human ERβ = human ERβ (Homo sapiens, UniProt Q92731); test: HGELN-ERβ luciferase transactivation assay; conditions: full-length receptor
ΔAB-ERα = test: HGELN-ΔAB-ERα luciferase transactivation assay
ΔAB-ERβ = test: HGELN-ΔAB-ERβ luciferase transactivation assay
wild-type ERα LBD = biological target: T2, wild-type ERα LBD (Homo sapiens, UniProt P03372); test: fluorescence anisotropy, SRC-1 NR2 peptide recruitment by ERα LBD; conditions: class from Kd of SRC-1 peptide for ERα LBD
T2 sequence (P03372 302-552): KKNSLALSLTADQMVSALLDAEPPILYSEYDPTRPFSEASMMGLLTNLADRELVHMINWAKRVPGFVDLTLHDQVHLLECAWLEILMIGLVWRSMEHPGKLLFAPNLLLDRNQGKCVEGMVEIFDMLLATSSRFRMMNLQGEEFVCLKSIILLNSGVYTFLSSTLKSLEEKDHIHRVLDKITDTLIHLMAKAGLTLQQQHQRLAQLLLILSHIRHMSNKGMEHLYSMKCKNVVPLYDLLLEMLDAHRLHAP

ER = system: ER; set-up: method as in Wilson et al. 2004; conditions: ref Wilson et al. 2004; cited from earlier work
[1] = biological target: T3, wt-ERα LBD (wild-type estrogen receptor α ligand-binding domain, amino acids 302–552) (human, UniProt P03372 302-552); test: fluorescence polarisation; fluorescence anisotropy as a1, with 4-OP at 2 molar equivalents of the highest protein concentration; conditions: both partners purified
T3 construct: also called wild-type ERα LBD; apo-ERα
T3 sequence (looked up): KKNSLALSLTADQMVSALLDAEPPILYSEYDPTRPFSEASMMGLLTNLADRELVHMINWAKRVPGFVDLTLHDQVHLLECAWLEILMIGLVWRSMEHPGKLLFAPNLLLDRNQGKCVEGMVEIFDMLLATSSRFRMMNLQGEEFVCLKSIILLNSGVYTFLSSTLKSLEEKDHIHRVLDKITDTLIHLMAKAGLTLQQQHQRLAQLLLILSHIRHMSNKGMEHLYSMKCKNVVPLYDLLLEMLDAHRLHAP

[2] = biological target: T4, wt-ERβ LBD (wild-type estrogen receptor β ligand-binding domain, amino acids 261–502) (human, UniProt Q92731 261-502); test: fluorescence polarisation; fluorescence anisotropy as a1, with BP-2 at 2 molar equivalents of the highest protein concentration; conditions: both partners purified
T4 construct: also called wild-type ERβ LBD; apo-ERβ

[3] = biological target: T3, wt-ERα LBD (wild-type estrogen receptor …); test: fluorescence polarisation; fluorescence anisotropy as a1, with α-ZA at 2 molar equivalents of the highest protein concentration; conditions: both partners purified
[4] = biological target: T4, wt-ERβ LBD (wild-type estrogen receptor …); test: as above; conditions: both partners purified

wild-type ERβ LBD, sequence (Q92731 261-502): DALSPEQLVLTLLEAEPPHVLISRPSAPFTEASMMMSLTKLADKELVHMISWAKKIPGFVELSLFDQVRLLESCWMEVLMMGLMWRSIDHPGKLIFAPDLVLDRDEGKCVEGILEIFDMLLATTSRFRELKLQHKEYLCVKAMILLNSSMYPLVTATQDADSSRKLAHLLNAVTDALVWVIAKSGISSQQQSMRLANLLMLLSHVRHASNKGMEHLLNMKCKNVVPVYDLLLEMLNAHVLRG
T4 sequence (Q92731 261-502): as above
human ERβ, sequence (Q92731 whole entry): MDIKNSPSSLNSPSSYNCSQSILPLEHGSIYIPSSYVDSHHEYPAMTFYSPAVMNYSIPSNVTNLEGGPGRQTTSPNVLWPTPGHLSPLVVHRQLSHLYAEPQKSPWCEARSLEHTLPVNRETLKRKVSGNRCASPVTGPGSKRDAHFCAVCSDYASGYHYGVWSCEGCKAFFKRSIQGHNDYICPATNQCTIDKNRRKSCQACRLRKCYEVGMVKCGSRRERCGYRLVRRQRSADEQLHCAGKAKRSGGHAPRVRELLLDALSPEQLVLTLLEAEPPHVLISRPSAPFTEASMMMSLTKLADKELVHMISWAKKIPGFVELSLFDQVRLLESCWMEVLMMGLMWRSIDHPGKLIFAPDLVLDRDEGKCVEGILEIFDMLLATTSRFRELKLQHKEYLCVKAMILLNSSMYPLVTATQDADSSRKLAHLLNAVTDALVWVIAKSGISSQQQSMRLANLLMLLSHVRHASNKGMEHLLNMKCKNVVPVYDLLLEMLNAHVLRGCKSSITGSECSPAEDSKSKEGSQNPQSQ

Molecule: CC(C)(C)CC(C)(C)c1ccc(O)cc1 [4-OP, 4-tert-octylphenol]
- ligand class by SRC-1 peptide recruitment, ERβ (wild-type ERβ LBD): partial agonists (partial agonists (1 μM ≤ Kd ≤ values for apo-ERα or -ERβ))

Molecule: O=C(c1ccc(O)cc1O)c1ccc(O)cc1O [BP-2, benzophenone-2]
- relative activation of the two ER subtypes (human ERα): activated the two ER subtypes equally
- agonistic potential in words, FL-ERα (human ERα): full agonist
- agonistic potential in words, FL-ERβ (human ERβ): full agonist
- agonistic potential in words, ΔAB-ERα (ΔAB-ERα; HGELN-ΔAB-ERα): full agonist
- AF-1 dependence of activity (ΔAB-ERα; full-length versus ΔAB (AF-1 deleted) ERs): fully AF-1–independent activity
- agonistic potential in words, ΔAB-ERβ (ΔAB-ERβ): full agonist
- ligand class by SRC-1 peptide recruitment, ERα (wild-type ERα LBD): strong agonists (strong agonists (Kd ≤ 1 μM))
- ligand class by SRC-1 peptide recruitment, ERβ (wild-type ERβ LBD): strong agonists (strong agonists (Kd ≤ 1 μM))

Molecule: CC(C)(c1ccc(O)cc1)c1ccc(O)cc1 [BPA, bisphenol A]
- ligand class by SRC-1 peptide recruitment, ERα (wild-type ERα LBD): partial agonists (partial agonists (1 μM ≤ Kd ≤ values for apo-ERα or -ERβ))
- ligand class by SRC-1 peptide recruitment, ERβ (wild-type ERβ LBD): partial agonists (partial agonists (1 μM ≤ Kd ≤ values for apo-ERα or -ERβ))

Molecule: Oc1ccc(C(=C(Cl)Cl)c2ccc(O)cc2)cc1 [BPC, bisphenol C]
- relative activation of the two ER subtypes (human ERα): activated ERα more efficiently than ERβ

Molecule: CCCCOC(=O)c1ccc(O)cc1 [Butylparaben, butylparaben]
- ligand class by SRC-1 peptide recruitment, ERβ (wild-type ERβ LBD): partial agonists (partial agonists (1 μM ≤ Kd ≤ values for apo-ERα or -ERβ))

Molecule: ClC(Cl)=C(c1ccc(Cl)cc1)c1ccc(Cl)cc1 [DDE, dichlorodiphenyldichloroethylene]
- ligand class by SRC-1 peptide recruitment, ERα (wild-type ERα LBD): partial agonists (partial agonists (1 μM ≤ Kd ≤ values for apo-ERα or -ERβ))

Molecule: Oc1ccc(C(c2ccc(O)cc2)C(Cl)(Cl)Cl)cc1 [HPTE, 2,2-bis(p-hydroxyphenyl)-1,1,1-trichloroethane]
- ER activity reported in other studies (ER): agonistic properties

Molecule: CC(C)(c1cc(Cl)c(O)c(Cl)c1)c1cc(Cl)c(O)c(Cl)c1 [TCBPA, tetrachlorobisphenol A]
- agonistic potential in words, FL-ERβ (human ERβ): ERβ antagonists
- agonistic potential in words, ΔAB-ERβ (ΔAB-ERβ): ERβ antagonists

Molecule: C[C@H]1CCC[C@H](O)CCCCCc2cc(O)cc(O)c2C(=O)O1 [α-ZA, α-zearalanol]
- agonistic potential in words, FL-ERα (human ERα): efficiently activated
- ligand class by SRC-1 peptide recruitment, ERα (wild-type ERα LBD): strong agonists (strong agonists (Kd ≤ 1 μM))

- Kd [1]: ≥ 1000 nM
- Kd [2]: ≤ 1000 nM
- Kd [3]: ≤ 1000 nM
- Kd [4]: ≥ 1000 nM
B1: fluorescein-RHKILHRLLQEGS peptide corresponding to the NR box 2-binding motif of SRC-1 (peptide)
peptide: {fluorescein″}-RHKILHRLLQEGS
notes: also called fluorescein-labeled SRC-1 NR2 peptide; SRC-1 NR2 peptide; source: synthetic peptide, bought: EZbiolab
